Assay results: US8039668B2, “Naphthalene-based inhibitors of anti-apoptotic proteins” (Burnham Institute for Medical Research, priority 2008, dated 2011)
Where two headings read alike, the source gives them in different places.

What was measured:
[1] = target: T1, BCL-XL (Homo sapiens, UniProt Q07817); experiment: 1D 1H-NMR binding assay; set-up: key to 1D-^1H NMR: +++, Very Active; ++, Active; +, Mild; −, Weak; conditions: for 1D-^1H NMR: Table 3, BCL-XL 25 μM, compound 200 μM
Experimental: By observing the aliphatic region of the spectra, binding could be readily detected due to chemical shift changes in active site methyl groups of Ile, Leu, Thr, Val or Ala (region between −0.8 and 0.3 ppm). All experiments were performed with a 600 MHz spectrometer Bruker Avance 600 equipped with four rf channels and z-axis pulse-field gradients.
Target sequence in this assay (Q07817 whole entry): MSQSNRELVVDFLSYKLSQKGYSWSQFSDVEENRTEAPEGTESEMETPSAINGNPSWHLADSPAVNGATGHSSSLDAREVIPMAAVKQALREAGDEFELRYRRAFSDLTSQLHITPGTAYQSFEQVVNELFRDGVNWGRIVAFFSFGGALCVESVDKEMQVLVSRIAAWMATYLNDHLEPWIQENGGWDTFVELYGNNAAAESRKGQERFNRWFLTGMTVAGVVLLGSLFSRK

[2] = tested on: B6Bcl-2 transgenic mice; conditions: for Tox: Bcl-2 transgenic mouse, single ip injection 72 μmol/kg; for percentage of maximum reduction in spleen weight (maximal biological activity): maximum shrinkage no more than 50%
Procedure, shortened: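 B6 line BCL-2 transgenic mice (human BCL-2 fused to IgH locus/enhancer, Balb/c background) sacrificed 24 h post-treatment by lethal i.p. Avertin. Spleen removed and weighed, fixed 3 days in z-FIX for H&E and TUNEL histology.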

[3] = tested on: H460 human lung cell line; experiment: Cell viability, ATP-LITE assay; assay type: cell-based; conditions: for EC50: Table 3, ATP-LITE assay, read-out: EC50 H460; for IC50: read-out: IC50 inhibiting cell growth, H460
Procedure, shortened: (§1)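 Human cancer lines were seeded at 2000 (H460, H1299), 3000 (PC3) or 10,000 (RS11846) cells/well in F12 or RPMI1640 with 5% FBS. Compounds were added in 0.1% DMSO 24 h after seeding. Viability was read by ATP-LITE luminescence after 72 h and normalized to DMSO controls.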

[4] = tested on: BCL-2 transgenic mice; experiment: Oral efficacy study in BCL-2 transgenic mice, QDx5 for 3 weeks; conditions: low dose 0.06 mmol/kg oral
Experimental: The volume of administration was 10 ml/kg, i.e., typically 0.2 mL per 20 gm mouse. […] Age-matched, sex-matched mice were typically dosed 5 times weekly, using a regiment of daily dosing 5 consecutive days (Monday through Friday), followed by resting for 2 days, before resuming dosing. […] At conclusion of treatments, mice were sacrificed via intra-peritoneal (i.p.) injection of 0.7 ml of Avertin and whole blood was collected into Yellow-Top Serum Separator tubes (Becton Dickinson Vacutainer Systems Becton Dickinson and Company, Franklin Lakes, N.J. 07417-1885). Spleens were removed and weighed.
Age-matched and sex-matched BCL-2 transgenic mice were used for efficacy studies. BCL-2 transgenic mice spontaneously developed low grade B-cell lymphoma as characterized by splenomegaly, as a function of time. In BCL-2 transgenic mice, the disease progression can be divided into two stages; at the first stage, the disease is characterized by splenomegaly as a result of expansion of B-cells in spleen due to over-expressed BCL-2 in B6 mice, and at the second stage, another genetic hit(s) may strike, resulting in disseminated lymphoma as characterized by bulky lymphadenopathy as well as splenomegaly.
In this study, BCL-2 transgenic mice at the first stage were used for this efficacy study. […] At conclusion of treatment, BCL-2 transgenic mice were sacrificed via intraperitoneal injection of 0.7 ml of avertin (anesthetic solution) and spleen was removed and weighed. Splenocytes were isolated by the use of mouse erythrocyte lysing kit (RD Systems). Total splenocyte count was determined by trypane blue exclusion assays. % B-cell count was determined by FACS analysis after staining cells with CD-5, a B-cell marker.

[5] = tested on: human lymphoma RS11846 cell line; experiment: Apoptosis, Annexin V-FITC and propidium iodide assay; assay type: cell-based; conditions: Annexin V-FITC and propidium iodide assay, read-out: EC50 RS11846
[6] = tested on: PC3ML cells; experiment: Cell viability, ATP-LITE assay; assay type: cell-based, human; conditions: Table 3, ATP-LITE assay, heading: EC50 PC3ML, read-out: EC50 PC3ML
Procedure, shortened: as §1

[7] = tested on: H1299 cell line; experiment: Cell viability, ATP-LITE assay; assay type: cell-based, human; conditions: for EC50: Table 3, ATP-LITE assay, read-out: EC50 H1299
Procedure, shortened: as §1

[8] = tested on: BP3 human B-cell lymphoma cell line; experiment: Annexin V-FITC and propidium iodide assay; assay type: cell-based; conditions: for EC50: Annexin V-FITC and propidium iodide assay, read-out: EC50 BP3
[9] = target: Bcl-2 (Homo sapiens, UniProt P10415); experiment: Competitive fluorescence polarization assay (FPA), Bim BH3 peptide; assay type: binding
[10] = Plasma stability; assay type: in vitro ADME, rat; conditions: for Plasma stability (T = 1 h): Table 6, rat plasma
Experimental: Plasma Stability. A 20 μL aliquot of a 10 mM solution in DMSO of the test compound was added to 2.0 mL of heparinized rat plasma (Lampire, P1-150N) to obtain a 100 μM final solution. The mixture was incubated for 1 h at 37.5° C. Aliquots of 100 μL were taken (0, 30 min, 1 h) and diluted with 200 μL of MeOH containing internal standard.

[11] = tested on: Bax/Bak double knockout mouse embryonic fibroblast cells (MEF/DKO); experiment: FITC-Annexin V/PI cytotoxicity in Bax/Bak double knockout cells; assay type: cell-based; conditions: 10 μM
Experimental: MEF/WT and MEF/DKO cells were seeded in 24-well plate at a seeding density of half a million per well (in 1 ml of DMEM medium supplemented by 10% FCS). […] On the following day, floating cells were pooled with adherent cells harvested after brief incubation with 0.25% Trypsin/EDTA solution (Gibco/In-Vitrogen Inc.). Cells were centrifuged and supernatant was discarded, and cell pellet was re-suspended with 0.2 ml of Annexin-V binding buffer, followed by addition of 1 μl Annexin-FITC and 1 μl PI (propidium iodide). The percentage of viable cells was determined by a 3-color FACSort instrument and data analyzed by Flow-Jo program, scoring Annexin V-negative, PI-negative as viable cells.

[12] = target: T1, BCL-XL; experiment: Competitive fluorescence polarization assay (FPA), Bak BH3 peptide; assay type: binding; set-up: 100 nM GST-BCL-XL ΔTM protein
Procedure, shortened: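 100 nM GST-BCL-XL ΔTM preincubated with compound in PBS pH 7.4 for 10 min at room temperature, then FITC-Bak BH3 peptide added. Polarization read after 10 min. IC50 from sigmoidal dose-response fit; mean ± SE of three independent experiments.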
Target sequence in this assay (Q07817 1-209 limits assumed): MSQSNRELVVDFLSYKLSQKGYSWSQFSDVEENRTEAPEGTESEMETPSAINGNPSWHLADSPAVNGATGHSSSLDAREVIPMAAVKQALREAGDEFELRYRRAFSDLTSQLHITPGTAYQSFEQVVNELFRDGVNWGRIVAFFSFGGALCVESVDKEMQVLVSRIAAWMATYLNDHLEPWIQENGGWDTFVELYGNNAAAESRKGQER

[13] = Chemical stability of solid compounds at room temperature (HPLC, LCMS); conditions: in air, Apogossypol in the absence of ascorbic acid
Source text: The stability of compound was monitored using a combination of HPLC and LCMS.

[14] = target: Mcl-1 (Homo sapiens, UniProt Q07820); experiment: Competitive fluorescence polarization assay (FPA), Bim BH3 peptide; assay type: binding
[15] = Liver microsomal stability; assay type: in vitro ADME, rat; conditions: Table 6; rat liver microsomes, 1 h
Source text: Liver Microsomal Stability.

[16] = target: T1, BCL-XL; experiment: Isothermal titration calorimetry (ITC); assay type: binding
Experimental: Titrations were performed using a VP-ITC or ITC200 calorimeter from Microcal (Northampton, Mass.). BCL-XL was used at concentrations between 25 and 100 μM in 20 mM sodium phosphate buffer (pH 7.4) and 5-10% DMSO. Titrants were used at concentrations 10-15 fold of that of the protein in the same buffer. Titrations were carried out at 25° C. Data were analyzed using Microcal Origin software provided by the ITC manufacturer (Microcal, Northampton, Mass.).
Target sequence in this assay (Q07817 whole entry): as the sequence (Q07817 whole entry) above

[17] = target: T2, Bfl-1 (Homo sapiens, UniProt Q16548); experiment: Competitive fluorescence polarization assay (FPA); assay type: binding
T2 sequence (Q16548 1-175): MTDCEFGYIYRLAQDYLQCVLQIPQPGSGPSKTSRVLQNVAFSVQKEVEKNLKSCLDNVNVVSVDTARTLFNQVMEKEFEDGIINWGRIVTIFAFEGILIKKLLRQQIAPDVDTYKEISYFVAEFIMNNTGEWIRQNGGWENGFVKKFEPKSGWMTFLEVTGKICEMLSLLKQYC

[18] = tested on: Balb/c mice
Source text: Upon conclusion of the study, mice were euthanized by CO2, and vital organs were harvested and fixed with z-FIX solution for 3 days at room temperature, rinsed in PBS three times, for further histological evaluation.

Sequence of Bcl-2 (P10415 whole entry): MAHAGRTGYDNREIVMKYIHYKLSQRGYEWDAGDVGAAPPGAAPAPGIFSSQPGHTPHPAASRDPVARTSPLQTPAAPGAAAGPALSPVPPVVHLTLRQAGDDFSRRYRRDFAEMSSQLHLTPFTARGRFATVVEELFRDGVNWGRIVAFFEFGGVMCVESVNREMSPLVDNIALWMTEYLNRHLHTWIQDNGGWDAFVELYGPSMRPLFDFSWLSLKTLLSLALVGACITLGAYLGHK
Sequence of Mcl-1 (Q07820 whole entry): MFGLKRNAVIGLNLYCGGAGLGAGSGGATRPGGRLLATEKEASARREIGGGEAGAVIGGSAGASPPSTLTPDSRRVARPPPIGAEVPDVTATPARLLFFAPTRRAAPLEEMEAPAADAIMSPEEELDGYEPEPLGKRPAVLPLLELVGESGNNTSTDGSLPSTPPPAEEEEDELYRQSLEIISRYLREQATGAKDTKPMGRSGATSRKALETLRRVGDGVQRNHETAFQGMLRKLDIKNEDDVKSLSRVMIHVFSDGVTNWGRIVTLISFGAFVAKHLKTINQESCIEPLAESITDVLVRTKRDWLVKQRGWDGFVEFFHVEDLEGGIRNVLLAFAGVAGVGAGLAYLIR

For `CC(=O)O.Cc1cc2c(C(C)C)c(O)c(O)c(C=O)c2c(O)c1-c1c(C)cc2c(C(C)C)c(O)c(O)c(C=O)c2c1O` [Gossypol, reference compound], the “1D-^1H NMR” value [1] was “+++”, the “1D ^1H-NMR Binding Assay (BCL-XL)” value ([1]; Table 9) was “++” and the Tox [2] was 2+. The “percentage of maximum reduction in spleen weight (maximal biological activity)” value ([2]; single ip 72 μmol/kg) was 40%, the EC50 ([3]; heading: EC50 H460) was 3000 nM and the shrinkage of spleen [4] was “induced shrinkage of spleen to a considerable extent but not significantly”. The tolerability [4] was “well tolerated”, the EC50 ([5]; Table 3, heading: EC50 RS11846) was 4200 nM and the EC50 [6] was 3100 nM. It also gave an EC50 ([7]; heading: EC50 H1299) of 6000 nM and an EC50 ([8]; Table 3, heading: EC50 BP3) of 1420 nM.

With `CCc1ccc(CCNC(=O)c2c(O)c(O)cc3c(O)c(-c4c(C)cc5c(C(=O)NCCc6ccc(CC)cc6)c(O)c(O)cc5c4O)c(C)cc23)cc1` [Compound 8q, N^5,N^5′-bis(4-ethylphenethyl)-1,1′,6,6′,7,7′-hexahydroxy-3,3′-dimethyl-2,2′-binaphthyl-5,5′-dicarboxamide] the IC50 [9] was 670 nM, the “1D-^1H NMR” value [1] was “+++” and the “Plasma stability (T = 1 h)” value [10] was 94%. The MEF/DKO cells killed [11] was 20-35%, the Tox [2] was 4+ and the EC50 ([3]; Homo sapiens, NCI-H460) was 400 nM. It also gave an IC50 ([3]; Homo sapiens, NCI-H460) of 400 nM, an IC50 ([12]; read-out: IC50 FPA Bcl-XL) of 930 nM and an EC50 ([5]; Homo sapiens) of 3000 to 5800 nM. For the same compound, the EC50 ([5]; Homo sapiens, Table 3, heading: EC50 RS11846) was 3000 nM, the EC50 ([6]; Homo sapiens, PC3-ML) was 1700 nM and the EC50 ([7]; Homo sapiens, NCI-H1299) was 360 nM. For the same compound, the IC50 ([7]; Homo sapiens, NCI-H1299, read-out: IC50 cell inhibition, H1299) was 360 nM, the EC50 ([8]; Homo sapiens, B-cell, Table 3) was 200 nM and the IC50 ([8]; Homo sapiens, B-cell, read-out: IC50 inhibiting cell growth, BP3) was 200 nM. For the same compound, the “degraded after 60 days at room temperature” value [13] was 10%, the IC50 [14] was 590 nM and the “Microsomal Stability (T = 1 h)” value [15] was 87%. It also gave a Kd [16] of 120 nM and an IC50 [17] of 1300 nM.

With `Cc1cc2c(C(=O)NCC(C)c3ccccc3)c(O)c(O)cc2c(O)c1-c1c(C)cc2c(C(=O)NCC(C)c3ccccc3)c(O)c(O)cc2c1O` (centres unmarked) [Compound 8r, 1,1′,6,6′,7,7′-hexahydroxy-3,3′-dimethyl-N^5,N^5′-bis(2-phenylpropyl)-2,2′-binaphthyl-5,5′-dicarboxamide] the “1D-^1H NMR” value [1] was “++”, the “degraded after 1 hour incubation in rat plasma” value ([10]; 1 hour) was 4% and the “Plasma stability (T = 1 h)” value [10] was 96%. For the same compound, the MEF/DKO cells killed [11] was 20-35%, the GI toxicity ([2]; B6Bcl-2 transgenic (Balb/c background), mouse, in vivo, 42 mg/kg, 24 h) was “mild signs of GI toxicity” and the “average weight loss of mice” value ([2]; mouse, in vivo, 42 mg/kg) was 7.8%. For the same compound, the “percentage of maximum reduction in spleen weight (maximal biological activity)” value ([2]; single ip 72 μmol/kg) was 85-95%, the spleen weight reduction ([2]; single mouse, single ip 72 μmol/kg) was “more than 40%” and the IC50 ([3]; Homo sapiens, NCI-H460) was 330 nM. For the same compound, the “times more potent than Apogossypol, H460” value ([3]; vs Apogossypol) was 7-10, the “times more effective than Apogossypol, FP Bcl-XL” value ([12]; vs Apogossypol) was 5 and the EC50 ([8]; Homo sapiens, B-cell) was 660 nM. For the same compound, the “times more potent than Apogossypol, BP3” value ([8]; vs Apogossypol) was 7-10, the “degraded after 60 days at room temperature” value [13] was 10% and the weight loss ([18]; mouse, in vivo, ip, 50 mg/kg) was “around 13%”. The mortality ([18]; single ip 100, 75, 50, 25 and 12.5 mg/kg, 14 days) was “All mice were alive after 14 days”, the “Microsomal Stability (T = 1 h)” value [15] was 76% and the “times more potent than Apogossypol, ITC Bcl-XL” value ([16]; vs Apogossypol) was 15. For the same compound, the “times more potent than Apogossypol, FP Bfl-1” value ([17]; vs Apogossypol) was “approximately 10”.
